Usually IC50 stands for the point on the concentration scale where inhibition reaches its midpoint.

Drawing on US7723523B2, “Tetrahydropyridothiophenes” (4SC AG, priority 2004, dated 2010), this text covers IC50 for 27 compounds.

For assay [1], the system named is RKO colon adenocarcinoma cells (RKOp27) arrested by expression of ectopic p27Kip1. As to the kind of experiment: Alamar Blue cell viability assay on RKOp27 cells arrested by Ponasterone A-induced p27Kip1 (cell cycle specific mode of action). The format is cell-based. To be noted: Homo sapiens, RKOp27, 72 h, cells arrested by p27Kip1 induced with 10 μM Ponasterone A, 72 hours incubation, read-out: IC50 RKO p27 arrested. Put shortly: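 Viability measured by Alamar Blue fluorescence (ex 544, em 590 nm) after 72 h, 37 °C compound exposure in quadruplicate, normalized to untreated cells as 100%. Cells were p27Kip1-arrested RKOp27, induced with 10 μM Ponasterone A at seeding; compound added 24 h later.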
On the technique in general: The colour change of resazurin is a common sign of viable cells or microbes.

The subject of assay [2] is RKO (RKOp27) human colon adenocarcinoma cells. As to the kind of experiment: Alamar Blue cell viability assay, anti-proliferative/cytotoxic activity on proliferating RKOp27 cells. The assay is classed as cell-based. The conditions noted are these: absence of Ponasterone A, 72 hours incubation, read-out: IC50 RKO p27 proliferating. Put shortly:
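IC50 values come from concentration-effect curves of Alamar Blue fluorescence (544/590 nm), relative to untreated controls set at 100%. Cells were RKOp27, seeded at 4000/well in DMEM with 10% FCS and exposed from 24 h post-seeding for 72 h (37 °C, 5% CO2) to semi-log dilutions, each run in quadruplicate.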

Molecules are shown by their SMILES.

For `CCOC(=O)N1CCc2c(sc(NC(=O)/C=C/c3ccc(N(C)C)cc3)c2C#N)C1` [Example 26, 3-Cyano-2-[(E)-3-(4-dimethylamino-phenyl)-allanoylamino]-4,7-dihydro-5H-thieno[2,3-c]pyridine-6-carboxylic acid ethyl ester], the IC50 in assay [1] is over 100 µM; in assay [2], at most 2 µM.

On to `CCOC(=O)N1CCc2c(sc(NC(=O)/C=C/c3ccsc3)c2C#N)C1` [Example 9, 3-Cyano-2-((E)-3-thiophen-3-yl-allanoylamino)-4,7-dihydro-5H-thieno[2,3-c]pyridine-6-carboxylic acid ethyl ester], for which the results for the IC50 in assay [1] and in assay [2] were over 100 µM and at most 2 µM, respectively.

As for `N#Cc1c(NC(=O)/C=C/c2cccnc2)sc2c1CCN(C(=O)OCc1cccnc1)C2` [Example 150, 3-Cyano-2-((E)-3-pyridin-3-yl-allanoylamino)-4,7-dihydro-5H-thieno[2,3-c]pyridine-6-carboxylic acid pyridin-3-ylmethyl ester], the IC50 in assay [1] is at least 100 µM; in assay [2] it was at most 2 µM.

`CCOC(=O)N1CCc2c(sc(NC(=O)/C=C/c3c(F)cccc3F)c2C#N)C1` [Example 65, 3-Cyano-2-[(E)-3-(2,6-difluoro-phenyl)-allanoylamino]-4,7-dihydro-5H-thieno[2,3-c]pyridine-6-carboxylic acid ethyl ester]: the IC50 in assay [1] is at least 100 µM; in assay [2] it was at most 2 µM.

For `CCOC(=O)N1CCc2c(sc(NC(=O)/C=C/c3nn(C)cc3Cl)c2C#N)C1` [Example 90, 2-[(E)-3-(4-Chloro-1-methyl-1H-pyrazol-3-yl)-allanoylamino]-3-cyano-4,7-dihydro-5H-thieno[2,3-c]pyridine-6-carboxylic acid ethyl ester], the IC50 in assay [1] was at least 100 µM; in assay [2], at most 2 µM.

For `CCOC(=O)N1CCc2c(sc(NC(=O)/C=C/c3ccoc3)c2C#N)C1` [Example 11, 3-Cyano-2-((E)-3-furan-3-yl-allanoylamino)-4,7-dihydro-5H-thieno[2,3-c]pyridine-6-carboxylic acid ethyl ester], the IC50 in assay [1] is over 100 µM; in assay [2] it was at most 2 µM.

As for `CCOC(=O)N1CCc2c(sc(NC(=O)/C=C/c3cccc4c3OCO4)c2C#N)C1` [Example 111, 2-((E)-3-Benzo[1,3]dioxol-4-yl-allanoylamino)-3-cyano-4,7-dihydro-5H-thieno[2,3-c]pyridine-6-carboxylic acid ethyl ester], the IC50 in assay [1] is at least 100 µM; in assay [2] it was at most 2 µM.

Consider `CCOC(=O)N1CCc2c(sc(NC(=O)/C=C/c3ccc(Cl)cc3Cl)c2C#N)C1` [Example 28, 3-Cyano-2-[(E)-3-(2,4-dichloro-phenyl)-allanoylamino]-4,7-dihydro-5H-thieno[2,3-c]pyridine-6-carboxylic acid ethyl ester], for which the IC50 was over 100 µM in assay [1] and at most 2 µM in assay [2].

Take `CCOC(=O)N1CCc2c(sc(NC(=O)/C=C/c3ccccc3Br)c2C#N)C1` [Example 66, 2-[(E)-3-(2-Bromo-phenyl)-allanoylamino]-3-cyano-4,7-dihydro-5H-thieno[2,3-c]pyridine-6-carboxylic acid ethyl ester]: the IC50 was at least 100 µM in assay [1] and at most 2 µM in assay [2].

For the compound `N#Cc1c(NC(=O)/C=C/c2cccnc2)sc2c1CCN(C(=O)OCCCc1ccccc1)C2` [Example 148, 3-Cyano-2-((E)-3-pyridin-3-yl-allanoylamino)-4,7-dihydro-5H-thieno[2,3-c]pyridine-6-carboxylic acid 3-phenyl-propyl ester], the figures for the IC50 in assay [1] and in assay [2] were at least 100 µM and at most 2 µM, respectively.

For the compound `COCC(=O)N1CCc2c(sc(NC(=O)/C=C/c3ccccc3)c2C#N)C1` [Example 181, (E)-N-[3-Cyano-6-(2-methoxy-ethanoyl)-4,5,6,7-tetrahydro-thieno[2,3-c]pyridin-2-yl]-3-phenyl-acrylamide], the IC50 in assay [1] was at least 100 µM; in assay [2], at most 2 µM.

Consider `N#Cc1c(NC(=O)/C=C/c2ccccc2)sc2c1CCN(C(=O)Cc1ccccn1)C2` [Example 174, (E)-N-[3-Cyano-6-(2-pyridin-2-yl-ethanoyl)-4,5,6,7-tetrahydro-thieno[2,3-c]pyridin-2-yl]-3-phenyl-acrylamide], for which the figures for the IC50 in assay [1] and in assay [2] were at least 100 µM and at most 2 µM, respectively.

As for `N#Cc1c(NC(=O)/C=C/c2cccnc2)sc2c1CCN(C(=O)OCCCc1cccnc1)C2` [Example 157, 3-Cyano-2-((E)-3-pyridin-3-yl-allanoylamino)-4,7-dihydro-5H-thieno[2,3-c]pyridine-6-carboxylic acid 3-pyridin-3-yl-propyl ester], the half-maximal inhibitory concentration (IC50) was at least 50 µM in assay [1] and at most 0.5 µM in assay [2].

Turning to `CCOC(=O)N1CCc2c(sc(NC(=O)/C=C/c3ccccc3OC(F)F)c2C#N)C1` [Example 231, 3-Cyano-2{(E), 3-[2-(1,1-difluoro-methoxy)-phenyl]-allanoylamino}-4,7-dihydro-5H-thieno[2,3-c]pyridine-6-carboxylic acid ethyl ester], the IC50 was at least 100 µM in assay [1] and at most 2 µM in assay [2].

On to `CCOC(=O)N1CCc2c(sc(NC(=O)/C=C/c3cccs3)c2C#N)C1` [Example 8, 3-Cyano-2-((E)-3-thiophen-2-yl-allanoylamino)-4,7-dihydro-5H-thieno[2,3-c]pyridine-6-carboxylic acid ethyl ester], for which the IC50 in assay [1] is over 100 µM; in assay [2], at most 2 µM.

Consider `N#Cc1c(NC(=O)/C=C/c2ccccc2)sc2c1CCN(C(=O)OCCn1ccnc1)C2` [Example 136, 3-Cyano-2-((E)-3-phenyl-allanoylamino)-4,7-dihydro-5H-thieno[2,3-c]pyridine-6-carboxylic acid 2-imidazol-1-yl-ethyl ester], for which the IC50 in assay [1] was at least 100 µM; in assay [2], at most 2 µM.

With `CCOC(=O)N1CCc2c(sc(NC(=O)/C=C/c3cccnc3)c2C#N)C1` [Example 7, N-(6-Ethoxycarbonyl-3-cyano-4,5,6,7-tetrahydro-thieno[2,3-c]pyridin-2-yl)-3-pyridyl-acrylamide], the IC50 in assay [1] is over 100 µM; in assay [2] it was at most 2 µM.

In the case of `N#Cc1c(NC(=O)/C=C/c2cccnc2)sc2c1CCN(C(=O)CCc1cccnc1)C2` [Example 193, (E)-N-[3-Cyano-6-(3-pyridin-3-yl-propanoyl)-4,5,6,7-tetrahydro-thieno[2,3-c]pyridin-2-yl]-3-pyridin-3-yl-acrylamide], the IC50 was at least 100 µM in assay [1] and at most 2 µM in assay [2].

Consider `CCOc1ccccc1/C=C/C(=O)Nc1sc2c(c1C#N)CCN(C(=O)Cc1ccccn1)C2` [Example 218, (E)-N-[3-Cyano-6-(2-pyridin-2-yl-ethanoyl)-4,5,6,7-tetrahydro-thieno[2,3-c]pyridin-2-yl]-3-(2-ethoxy-phenyl)-acrylamide], for which the IC50 in assay [1] is at least 100 µM; in assay [2], at most 2 µM.

As to `N#Cc1c(NC(=O)/C=C/c2cccnc2)sc2c1CCN(C(=O)OC1CCCCC1)C2` [Example 168, 3-Cyano-2-((E)-3-pyridin-3-yl-allanoylamino)-4,7-dihydro-5H-thieno[2,3-c]pyridine-6-carboxylic acid cyclohexyl ester], the concentration for half-maximal inhibition (IC50) in assay [1] was at least 50 µM; in assay [2], at most 0.5 µM.

As to `N#Cc1c(NC(=O)/C=C/c2cccnc2)sc2c1CCN(C(=O)OCCc1ccccc1)C2` [Example 47, 3-Cyano-2-((E)-3-pyridin-3-yl-allanoylamino)-4,7-dihydro-5H-thieno[2,3-c]pyridine-6-carboxylic acid phenethyl ester], the IC50 in assay [1] is over 100 µM; in assay [2], at most 2 µM.

On to `CCOC(=O)N1CCc2c(sc(NC(=O)/C=C/c3cccc(C)c3)c2C#N)C1` [Example 16, 3-Cyano-2-((E)-3-m-tolyl-allanoylamino)-4,7-dihydro-5H-thieno[2,3-c]pyridine-6-carboxylic acid ethyl ester], for which the values for the IC50 in assay [1] and in assay [2] were over 100 µM and at most 2 µM, respectively.

With `N#Cc1c(NC(=O)/C=C/c2cccnc2)sc2c1CCN(C(=O)OCc1ccccn1)C2` [Example 149, 3-Cyano-2-((E)-3-pyridin-3-yl-allanoylamino)-4,7-dihydro-5H-thieno[2,3-c]pyridine-6-carboxylic acid pyridin-2-ylmethyl ester], the IC50 in assay [1] is at least 100 µM; in assay [2] it was at most 2 µM.

Turning to `COC(=O)N1CCc2c(sc(NC(=O)/C=C/c3cccnc3)c2C#N)C1` [Example 44, 3-Cyano-2-((E)-3-pyridin-3-yl-allanoylamino)-4,7-dihydro-5H-thieno[2,3-c]pyridine-6-carboxylic acid methyl ester], the IC50 was over 100 µM in assay [1] and at most 2 µM in assay [2].

For `CCOc1ccccc1/C=C/C(=O)Nc1sc2c(c1C#N)CCN(C(=O)OCc1ccncc1)C2` [Example 238, 3-Cyano-2-[(E)-3-(2-ethoxy-phenyl)-allanoylamino]-4,7-dihydro-5H-thieno[2,3-c]pyridine-6-carboxylic acid pyridin-4-ylmethyl ester], the values for the IC50 in assay [1] and in assay [2] were at least 100 µM and at most 2 µM, respectively.

Take `N#Cc1c(NC(=O)/C=C/c2ccccc2)sc2c1CCN(C(=O)OCCCc1ccncc1)C2` [Example 117, 3-Cyano-2-((E)-3-phenyl-allanoylamino)-4,7-dihydro-5H-thieno[2,3-c]pyridine-6-carboxylic acid 3-pyridin-4-yl-propyl ester]: the IC50 was at least 100 µM in assay [1] and at most 2 µM in assay [2].

With `COCCOCC(=O)N1CCc2c(sc(NC(=O)/C=C/c3cccnc3)c2C#N)C1` [Example 200, (E)-N-{3-Cyano-6-[2-(2-methoxy-ethoxy)-ethanoyl]-4,5,6,7-tetrahydro-thieno[2,3-c]pyridin-2-yl}-3-pyridin-3-yl-acrylamide], the IC50 is at least 100 µM in assay [1] and at most 2 µM in assay [2].
